Measured values taken from patent US20050043374A1, “Aryl substituted oxazolidinones with antibacterial activity” (priority 2001, published 2005).
Values after ≈ are worked out from the molar mass of the structure shown.

Assays:
Assay type in all cases: cell-based
Haemophilus influenzae = assay: MIC, Mueller-Hinton broth with hemin and NAD, fastidious Gram negative organisms; conditions: aerobic, 24 hours, 37° C., 5×10^4 CFU/well
Protocol: (§1) The following results were obtained on a standard in-vitro test system. The activity is described in terms of the minimum inhibitory concentration (MIC) determined by the agar-dilution technique with an inoculum size of 10^4 CFU/spot. Typically, compounds are active in the range 0.01 to 256 μg/ml.
(§2) Streptococci and enterococci were tested on agar supplemented with 5% defibrinated horse blood, an inoculum of 10^4 CFU/spot and an incubation temperature of 37° C. in an atmosphere of 5% carbon dioxide for 48 hours—blood is required for the growth of some of the test organisms. Fastidious Gram negative organisms were tested in Mueller-Hinton broth, supplemented with hemin and NAD, grown aerobically for 24 hours at 37° C., and with an innoculum of 5×10^4 CFU/well.

Moraxella catarrhalis = assay: as above; conditions: aerobic, 24 hours, 37° C., 5×10^4 CFU/well
Protocol: as §1, §2

[1] = test system: Staphylococcus aureus MRQR (methicillin resistant and quinolone resistant); assay: MIC, agar dilution, staphylococci; conditions: inoculum 10^4 CFU/spot, 37° C., 24 hours
Protocol: as §1
(§3) Staphylococci were tested on agar, using an inoculum of 10^4 CFU/spot and an incubation temperature of 37° C. for 24 hours—standard test conditions for the expression of methicillin resistance.

[2] = test system: Staphylococcus aureus MSQS (methicillin sensitive and quinolone sensitive); assay: MIC, agar dilution, staphylococci; conditions: inoculum 10^4 CFU/spot, 37° C., 24 hours
Protocol: as §1, §3

Streptococcus pyogenes = assay: MIC, agar with 5% defibrinated horse blood, streptococci; conditions: 10^4 CFU/spot, 37° C., 5% carbon dioxide, 48 hours
Protocol: as §1, §2

Streptococcus pneumoniae = assay: as above; conditions: 10^4 CFU/spot, 37° C., 5% carbon dioxide, 48 hours
Protocol: as §1, §2

MIC (Haemophilus influenzae): 2 µg/mL (≈ 5.39 µM)
MIC (Moraxella catarrhalis): 0.5 µg/mL (≈ 1.35 µM)
MIC [1]: 0.25 µg/mL (≈ 0.673 µM)
MIC [2]: 0.125 µg/mL (≈ 0.337 µM)
MIC (Streptococcus pyogenes): 0.125 µg/mL (≈ 0.337 µM)
MIC (Streptococcus pneumoniae): 0.125 µg/mL (≈ 0.337 µM)
SMILES: N#Cc1nnc(-c2ccc(N3C[C@H](Cn4ccnn4)OC3=O)cc2F)s1 [Example 1, (5R)-3-(3-Fluoro-4-(5-cyano-1,3,4-thiadiazol-2-yl)phenyl)-5-(1H-1,2,3-triazol-1-ylmethyl)-1,3-oxazolidin-2-one]
